Results published in patent US8703963B2, “Derivative N-thiolated 2-oxazolidinone antibiotics” (University of South Florida, priority 2005, dated 2014).
Marks after values point to notes of the source that are not given here.

Assays:
MRSA USF658 = assay: Kirby-Bauer agar disk diffusion; conditions: 20 μg on 6 mm disk, 24 h at 37° C., triplicate
[1] = system: S. aureus 849 (ATCC 25923); assay: Kirby-Bauer agar disk diffusion; conditions: for zone of growth inhibition, average diameter: S. aureus 849 (ATCC 25923), 20 μg on 6 mm disk, 24 h at 37° C., triplicate; for S. aureus (Inhibition), median zone of inhibition: S. Aureaus strain 849, c = partial inhibition within this diameter
MRSA USF659 = assay: Kirby-Bauer agar disk diffusion; conditions: 20 μg on 6 mm disk, 24 h at 37° C., triplicate
MRSA USF655 = assay: Kirby-Bauer agar disk diffusion; conditions: 20 μg on 6 mm disk, 24 h at 37° C., triplicate
MRSA USF657 = assay: Kirby-Bauer agar disk diffusion; conditions: 20 μg on 6 mm disk, 24 h at 37° C., triplicate
MRSA USF653 = assay: Kirby-Bauer agar disk diffusion; conditions: 20 μg on 6 mm disk, 24 h at 37° C., triplicate
MRSA USF654 = assay: Kirby-Bauer agar disk diffusion; conditions: 20 μg on 6 mm disk, 24 h at 37° C., triplicate
MRSA USF656 = assay: Kirby-Bauer agar disk diffusion; conditions: 20 μg on 6 mm disk, 24 h at 37° C., triplicate
MRSA USF652 = assay: Kirby-Bauer agar disk diffusion; conditions: 20 μg on 6 mm disk, 24 h at 37° C., triplicate
MRSA USF920 (ATCC 33591) = assay: Kirby-Bauer agar disk diffusion; conditions: 20 μg on 6 mm disk, 24 h at 37° C., triplicate
MRSA USF919 (ATCC 43300) = assay: Kirby-Bauer agar disk diffusion; conditions: 20 μg on 6 mm disk, 24 h at 37° C., triplicate
B. globigii = assay: Kirby-Bauer agar disk diffusion; type: cell-based; conditions: 20 μg on 6 mm disk, 24 h at 37° C., triplicate
B. subtilus = assay: Kirby-Bauer agar disk diffusion; type: cell-based; conditions: 20 μg on 6 mm disk, 24 h at 37° C., triplicate
[2] = system: Bacillus anthracis (Sterne strain); type: cell-based; conditions: B. anthracis (Sterne strain); 20 μg on 6 mm disk; 24 h at 37° C.; triplicate
B. coagulans = assay: Kirby-Bauer agar disk diffusion; type: cell-based; conditions: 20 μg on 6 mm disk, 24 h at 37° C., triplicate
B. megaterium = assay: Kirby-Bauer agar disk diffusion; type: cell-based; conditions: 20 μg on 6 mm disk, 24 h at 37° C., triplicate
B. cereus = assay: Kirby-Bauer agar disk diffusion; type: cell-based; conditions: 20 μg on 6 mm disk, 24 h at 37° C., triplicate
B. thurigensis = assay: Kirby-Bauer agar disk diffusion; type: cell-based; conditions: 20 μg on 6 mm disk, 24 h at 37° C., triplicate
MRSA = assay: Broth MIC; type: cell-based, Staphylococcus aureus
S. aureus = assay: Broth MIC; type: cell-based, Staphylococcus aureus
[3] = system: 10 strains of MRSA (652-659, 919-920); assay: Kirby-Bauer zones of inhibition, 10 strains of MRSA; conditions: for MRSA (inhibition), median diameter of zone of inhibition: median of 10 strains of MRSA (652-659, 919-920), c = partial inhibition within this diameter

| Structure (SMILES) | zone of growth inhibition, average diameter (MRSA USF658) [mm] | zone of growth inhibition, average diameter [1] [mm] | zone of growth inhibition, average diameter (MRSA USF659) [mm] | zone of growth inhibition, average diameter (MRSA USF655) [mm] | zone of growth inhibition, average diameter (MRSA USF657) [mm] | zone of growth inhibition, average diameter (MRSA USF653) [mm] | zone of growth inhibition, average diameter (MRSA USF654) [mm] | zone of growth inhibition, average diameter (MRSA USF656) [mm] | zone of growth inhibition, average diameter (MRSA USF652) [mm] | zone of growth inhibition, average diameter (MRSA USF920 (ATCC 33591)) [mm] | zone of growth inhibition, average diameter (MRSA USF919 (ATCC 43300)) [mm] | zone of growth inhibition, average diameter (B. globigii) [mm] | zone of growth inhibition, average diameter (B. subtilus) [mm] | zone of growth inhibition, average diameter [2] [mm] | zone of growth inhibition, average diameter (B. coagulans) [mm] | zone of growth inhibition, average diameter (B. megaterium) [mm] | zone of growth inhibition, average diameter (B. cereus) [mm] | zone of growth inhibition, average diameter (B. thurigensis) [mm] | S. aureus (Inhibition), median zone of inhibition [1] | MRSA (inhibition), median diameter of zone of inhibition [3] | other results |
| --- | --- | --- | --- | --- | --- | --- | --- | --- | --- | --- | --- | --- | --- | --- | --- | --- | --- | --- | --- | --- | --- |
| COC1C(=O)N(SC)C1c1ccccc1 (racemic) [Lac, reference compound] | 26 | 25 | 24 | 25 | 27 | 30 | 26 | 28 | 30 | – | – | – | – | – | – | – | – | – | – | – | – |
| CC1(C)S[C@@H]2[C@H](NC(=O)Cc3ccccc3)C(=O)N2[C@H]1C(=O)O [Pen G, penicillin G, reference compound] | 19 | 33 | 16 | 14 | 12 | 15 | 10 | 12 | 8 | – | – | – | – | – | – | – | – | – | – | – | – |
| CCC(C)SN1CC(CCl)OC1=O (stereo not drawn) [compound 5] | 21 | 19 | 20 | 22 | 22 | 20 | 22 | 20 | 19 | 19 | 19 | – | – | – | – | – | – | – | – | – | – |
| CSN1C(=O)OC[C@@H]1c1ccccc1 [compound 6] | 29 | 30 | 26 | 29 | 29 | 31 | 29 | 31 | 30 | 28 | 30 | 15 | 19 | 23 | 17 | 18 | 24 | 17 | – | – | – |
| CSN1C(=O)OC[C@H]1c1ccccc1 [compound 7] | 27 | 29 | 26 | 28 | 27 | 30 | 26 | 28 | 30 | 28 | 28 | 17 | 19 | 23 | 17 | 20 | 23 | 15 | – | – | broth MIC value (MRSA): 8 µg/mL; broth MIC value (S. aureus): 8 µg/mL |
| CSN1C(=O)OC[C@@H]1C(C)C [compound 8] | 16 | 20 | 22 | 22 | 22 | 27 | 23 | 22 | 19 | 18 | 21 | 15 | 17 | 23 | 17 | 18 | 22 | 16 | – | – | broth MIC value (MRSA): 16 µg/mL; broth MIC value (S. aureus): 16 µg/mL |
| CSN1C(=O)OC[C@H]1C(C)C [compound 9] | 19 | 21 | 22 | 18 | 19 | 25 | 20 | 20 | 12 | 15 | 13 | 17 | 19 | 15 | 0 | 10 | 15 | 0 | – | – | clarity of growth inhibition zones ([3]; Kirby-Bauer, anti-MRSA, compared with S-stereoisomer 8): incomplete growth inhibition |
| CSN1C(=O)OC[C@@H]1c1ccccc1 [oxazolidinone 6, 4S-(+)-N-methylthio-4-phenyl-2-oxazolidinone] | – | – | – | – | – | – | – | – | – | – | – | – | – | – | – | – | – | – | 30 mm | 29 mm | – |
| CSN1C(=O)OC[C@H]1c1ccccc1 [oxazolidinone 7, 4R-(−)-N-methylthio-4-phenyl-2-oxazolidinone] | – | – | – | – | – | – | – | – | – | – | – | – | – | – | – | – | – | – | 29 mm | 28 mm | – |
| CSN1C(=O)OC[C@@H]1C(C)C [oxazolidinone 8] | – | – | – | – | – | – | – | – | – | – | – | – | – | – | – | – | – | – | 20^c mm | 16^c mm | – |
| CSN1C(=O)OC[C@H]1C(C)C [oxazolidinone 9, 4R-(+)-N-methylthio-4-isopropyl-2-oxazolidinone] | – | – | – | – | – | – | – | – | – | – | – | – | – | – | – | – | – | – | 21^c mm | 19^c mm | – |
